Measured values published in publication PMC8092209, “Structural Basis of Ligand Selectivity by a Bacterial Adhesin Lectin Involved in Multispecies Biofilm Formation” (mBio, 2021).
pKd: −log10 of the molar value. Like-named read-outs stand apart in the source and are kept apart here.

Key:
Format in all cases: binding
[1] = target: T1, MpPA14 (Marinomonas primoryensis, UniProt A1YIY3); test: First glycan array (fungal, bacterial and plant polysaccharide array set 2, Imperial College); conditions: for Binding of MpPA14 (RFUs): GFP-MpPA14 50 μg/ml, Alexa Fluor 647 anti-GFP antibody, mean of duplicates; for binding to MpPA14 in first glycan array (in words): GFP-MpPA14
[2] = target: T1, MpPA14; test: Second glycan array (32 polysaccharides, Max Planck Institute for Marine Microbiology); conditions: for Binding of MpPA14 (RFUs): normalized signal intensity, maximal mean set to 100, cutoff of 5
From the text: To expand the repertoire of glycans beyond glucans and mannans, we performed a second focused microarray composed of 32 polysaccharides found in microbes such as fungi and bacteria, as well as in macroalgae and plants (Fig. 4B). […] In addition, MpPA14 interacted avidly with fucoidans from macroalgae. […] This conformer is not present in the arabinan polymer composed of 1,5-linked α-L-arabino-furanoses, which are then not free to transition to the pyranose form. Similarly, since the MpPA14 binds galactose via the 1,2-diol (β-anomer) (Fig. 3H), the lectin cannot interact with galactans, as they are polymers of β-1,4-D-galactose (Fig. 4B and Table S5).
The second glycan array was performed at the Max Planck Institute for Marine Microbiology (Bremen, Germany). The array contained duplicates of 32 polysaccharides, including those from macroalgae, bacteria, fungi, and land plants (see details in Table S5 in the supplemental material). N-terminally His-tagged MpPA14 was incubated with the array, and binding of the lectin to the polysaccharides was detected by an anti-His tag secondary antibody conjugated to alkaline phosphatase (Sigma-Aldrich). Microarray probing and quantification were performed as previously described ([45]). Maximal mean (average of the duplicates) signal intensity was set to 100, and the rest of values were normalized accordingly. A cutoff of 5 was applied ([58]).

[3] = target: T1, MpPA14; test: Dextran-based comparative competition assay (MpPA14)
From the text: To gain insight into the binding specificity of MpPA14, we investigated the relative affinity of various monosaccharides for the lectin by a comparative competition assay ([12]). MpPA14 bound to Superdex resin was competitively released into solution by the progressive addition of free sugars. The released protein concentrations measured by absorbance at 280 nm were plotted as a function of free sugar concentration to produce semiquantitative binding curves (Fig. 1A and B). The apparent dissociation constant (Kdapp) calculated from these binding curves was used as a relative measure of affinity for each assayed sugar (Table 1). […] D-Ribose bound […] more strongly than its derivative 2-deoxy-D-ribose (Kdapp of 6.8 mM as opposed to 18 mM; Fig. 1B and Table 1).
The dextran resin competition assay was performed as previously described for MhPA14 ([12]). Briefly, Superdex 200 (S200) resin was washed twice with 50 mM Tris-HCl (pH 9), 150 mM NaCl, and 5 mM CaCl2. One ml of 1 mg/ml MpPA14 with green fluorescent protein (GFP) fused to its N terminus (GFP-MpPA14) or VcPA14 labeled with FITC was suspended with 300 μl of equilibrated Superdex 200 (S200) resin. Following an incubation period with gentle mixing, the S200 resin bound with GFP-MpPA14 was pelleted by centrifugation. The pellet was washed twice with 50 mM Tris-HCl (pH 9), 150 mM NaCl, and 5 mM CaCl2, and the A280 of the supernatant from the second wash was used as the baseline reading. Next, after resuspension in the same buffer, aliquots of 1.67 μmol saccharide were sequentially added to the solution six or seven times, with the A280 of the supernatant being measured after each addition to quantify the release of lectin. The final addition of saccharide was […]. Data from the dextran affinity assay were plotted using GraphPad Prism after subtracting the background. Next, the data were fitted to a nonlinear regression of one-site-specific binding, which follows the model y/Bmax = x/(Kd + x), with Bmax as the maximum specific binding and Kd as the equilibrium binding constant.

T1 sequence (A1YIY3 entry or part of it): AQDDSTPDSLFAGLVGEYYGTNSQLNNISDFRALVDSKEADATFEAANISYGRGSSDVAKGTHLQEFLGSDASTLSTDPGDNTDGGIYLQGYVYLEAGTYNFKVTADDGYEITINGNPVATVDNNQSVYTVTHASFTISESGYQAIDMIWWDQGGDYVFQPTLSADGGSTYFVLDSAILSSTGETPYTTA

Pustulan (β-(1→6)-D-glucan) [Pustulan (Umbilicaria papullosa)]
Binding of MpPA14 (RFUs) [1]: 1565 RFUs

Rhamnogalacturonan I
Binding of MpPA14 (RFUs) [2]: 0 RFUs

OC1OC[C@H](O)[C@H](O)[C@H]1O (mixture of isomers) [L-Arabinose]
pKd [3]: 2.66

Fucoidan [Fucoidan (Ascophyllum nodosum)]
binding to MpPA14 in second glycan array (in words) [2]: strongest MpPA14-binding fucoidans | Binding of MpPA14 (RFUs) [2]: 77 RFUs

Lichenan Mixed β-(1→3)/β-(1→4)-D-glucan [Lichenan (Lichen)]
Binding of MpPA14 (RFUs) [1]: 349 RFUs

Fucoidan [Fucoidan (Cladosiphon)]
binding to MpPA14 in second glycan array (in words) [2]: strongest MpPA14-binding fucoidans | Binding of MpPA14 (RFUs) [2]: 100 RFUs

Galactomannan (β-(1→4)-D-mannan backbone)
binding to MpPA14 in second glycan array (in words) [2]: did not bind | Binding of MpPA14 (RFUs) [2]: 0 RFUs

Pachyman (β-(1→3)-D-glucan backbone with 1→6 branches)
binding to MpPA14 in second glycan array (in words) [2]: significant binding | Binding of MpPA14 (RFUs) [2]: 75 RFUs

Xyloglucan
binding to MpPA14 in second glycan array (in words) [2]: did not bind | Binding of MpPA14 (RFUs) [2]: 0 RFUs

Fucoidan [Fucoidan (Fucus serratus)]
Binding of MpPA14 (RFUs) [2]: 53 RFUs

Galactofucan
Binding of MpPA14 (RFUs) [2]: 40 RFUs

Carboxymethyl cellulose (β-(1→4)-D-glucan)
Binding of MpPA14 (RFUs) [2]: 28 RFUs

Lichenan (β-(1→3)(1→4)-D-glucan) [Lichenan (Icelandic moss)]
Binding of MpPA14 (RFUs) [2]: 44 RFUs

Polygalacturonic acid (α-(1→4)-D-galacturonic acid)
Binding of MpPA14 (RFUs) [2]: 0 RFUs

Lentinan (β-(1→3)-D-glucan backbone, β-(1→3)-D-glucan branches)
binding to MpPA14 in first glycan array (in words) [1]: bound most avidly | Binding of MpPA14 (RFUs) [1]: 41060 RFUs

β-glucan Mixed β-(1→3)/β-(1→4)-D-glucan [β-glucan (Barley)]
binding to MpPA14 in first glycan array (in words) [1]: negligible or no detectable binding | Binding of MpPA14 (RFUs) [1]: 23 RFUs | Binding of MpPA14 (RFUs) [2]: 0 RFUs

PGPGG (β-(1→3)-D-glucan backbone, β-(1→3)-D-glucan branches)
Binding of MpPA14 (RFUs) [1]: 30143 RFUs

Mannan (β-(1→4)-D-mannan) [Mannan (Ivory nut)]
Binding of MpPA14 (RFUs) [2]: 15 RFUs

GN6-AO (chitin, β-1→4-GlcNAc)
binding to MpPA14 in first glycan array (in words) [1]: negligible or no detectable binding | Binding of MpPA14 (RFUs) [1]: 178 RFUs

O[C@H]1[C@H](O)[C@@H](O)[C@H](O)[C@@H](O)[C@H]1O [Inositol, myo-inositol]
pKd [3]: 2.57

Fucoidan [Fucoidan (Laminaria)]
Binding of MpPA14 (RFUs) [2]: 69 RFUs

O=C[C@H](O)[C@H](O)[C@H](O)CO [Ribose, D-Ribose]
pKd ([3]; GFP-MpPA14 bound to Superdex 200 resin released by free sugar, A280, pH 9, 5 mM CaCl2, – = no detectable binding (footnote a), read-out: Kdapp (apparent dissociation constant)): 2.17

β-(1→4)-D-galactan
binding to MpPA14 in second glycan array (in words) [2]: did not bind | Binding of MpPA14 (RFUs) [2]: 0 RFUs

Laminarin (β-(1→3)-D-glucan backbone with 1→6 branches) [Laminarin (Eisenia bicyclis)]
Binding of MpPA14 (RFUs) [2]: 39 RFUs

O=C[C@H](O)[C@@H](O)[C@H](O)CO [Xylose]
pKd [3]: 1.96

CO[C@@H]([C@H](O)[C@H](O)CO)[C@@H](O)C=O [3-O-methyl-glucose, 3-O-methyl-D-glucose]
pKd [3]: 2.24

Partially acetylated alginate
Binding of MpPA14 (RFUs) [2]: 0 RFUs
